Experiments:
Assay type in all cases: toxicity, cell-based
[1] = system: HEK-293T; experiment: Incucyte cell viability with HEK293T; conditions: human, 10 µM, compound concentration 10 uM
[2] = system: U2OS; experiment: Incucyte cell viability with U2OS; conditions: human, 10 µM, compound concentration 10 uM
[3] = system: Fibroblast; experiment: Incucyte cell viability with human fibroblast; conditions: 10 µM, compound concentration 10 uM
Also: unitless GR value; below 1 slowed growth and below 0 cell loss.

Structure (SMILES) | Growth Rate ([1]; 0 h, replicate number 1) | Growth Rate ([1]; 0 h, replicate number 2) | Growth Rate ([1]; 6 h, replicate number 1) | Growth Rate ([1]; 12 h, replicate number 1) | Growth Rate ([1]; 18 h, replicate number 1) | Growth Rate ([2]; 0 h, replicate number 1) | Growth Rate ([2]; 12 h, replicate number 1) | Growth Rate ([3]; 6 h, replicate number 1) | Growth Rate ([3]; 12 h, replicate number 2) | Growth Rate ([3]; 18 h, replicate number 2) | Growth Rate ([1]; 6 h, replicate number 2) | Growth Rate ([1]; 12 h, replicate number 2) | Growth Rate ([1]; 18 h, replicate number 2) | Growth Rate ([1]; 24 h, replicate number 2) | Growth Rate ([2]; 12 h, replicate number 2) | Growth Rate ([2]; 18 h, replicate number 2) | Growth Rate ([2]; 24 h, replicate number 2) | Growth Rate ([3]; 0 h, replicate number 1) | Growth Rate ([3]; 18 h, replicate number 1) | Growth Rate ([3]; 12 h, replicate number 1) | further results
CC(C)(C)OC(=O)CN1C(=O)c2c(OCC(=O)O)cccc2Oc2ccc(C(F)(F)F)cc21 | 0.31 | -0.65 | 0.69 | 0.61 | 0.76 | 0.59 | 0.85 | 0.95 | 0.43 | 0.87 |  |  |  |  |  |  |  |  |  |  | Growth Rate ([1]; 24 h, replicate number 1): 0.75; Growth Rate ([2]; 6 h, replicate number 1): 0.75; Growth Rate ([2]; 18 h, replicate number 1): 0.83; Growth Rate ([2]; 24 h, replicate number 1): 0.89; Growth Rate ([3]; 6 h, replicate number 2): -0.59
CCc1ccc(-c2ncn(CC3(F)CCN(C)CC3)c2-c2ccnc3[nH]ccc23)nc1 | -0.12 | 0.98 | 0 | 0.43 | 0.76 | 0.47 | 0.71 |  |  | 0.97 | 0.08 | 0.35 | 0.72 | 0.69 | 0.69 | 0.83 | 0.75 | 0.78 | 0.78 |  | Growth Rate ([1]; 24 h, replicate number 1): 0.9; Growth Rate ([2]; 6 h, replicate number 1): 0.66; Growth Rate ([2]; 18 h, replicate number 1): 0.85; Growth Rate ([2]; 24 h, replicate number 1): 0.87; Growth Rate ([3]; 0 h, replicate number 2): 0.42; Growth Rate ([3]; 6 h, replicate number 2): 0.83; Growth Rate ([3]; 24 h, replicate number 1): 0.93
CCN1CCN(Cc2ccc(Nc3ncc(F)c(-c4cc(F)c5nc(C)n(C(C)C)c5c4)n3)nc2)CC1.CS(=O)(=O)O | -0.17 | 0.21 |  | 0.36 |  |  |  | 0.33 | 0.98 |  | 0.64 | 0.38 | 0.6 | 0.76 | 0.97 | 0.98 | 1 | 0.5 |  | -1 | 
C[C@@H](NC(=O)Cc1ccc(C2CC2)cc1)c1ccc(OCC(F)(F)F)cn1 |  |  | 0.39 |  |  | -0.06 |  | 0.85 | 0.67 | 0.93 | 0.17 | 0.64 | 0.63 | 0.68 | 0.53 | 0.79 | 0.87 | -0.4 | -0.27 | -1 | Growth Rate ([2]; 0 h, replicate number 2): -0.85; Growth Rate ([2]; 6 h, replicate number 2): 0.67; Growth Rate ([3]; 6 h, replicate number 2): -0.99; Growth Rate ([3]; 24 h, replicate number 1): 0.8; Growth Rate ([3]; 24 h, replicate number 2): 0.89
NC(=O)c1ccc2[nH]c(-c3ccc(Oc4ccc(Cl)cc4)cc3)nc2c1 | 0.58 |  | 0.6 |  |  |  | 0.47 | -0.26 |  |  | 0.12 | 0.93 |  | 0.98 | 0.71 | 0.83 | 0.82 | 0.02 |  | -1 | Growth Rate ([2]; 0 h, replicate number 2): -0.59; Growth Rate ([2]; 6 h, replicate number 1): -0.28; Growth Rate ([2]; 6 h, replicate number 2): 0.74; Growth Rate ([2]; 18 h, replicate number 1): 0.72; Growth Rate ([2]; 24 h, replicate number 1): 0.75; Growth Rate ([3]; 0 h, replicate number 2): -0.68
CC(C1CC2CCC1C2)n1c(S)nnc1-c1ccco1 (stereo unspecified) |  | 0.53 | 0.59 | 0.81 | 0.69 |  | 0.97 |  |  |  | 0.46 | 0.63 | 0.74 | 0.81 | 0.67 | 0.78 | 0.89 |  | -0.08 | -1 | Growth Rate ([1]; 24 h, replicate number 1): 0.75; Growth Rate ([2]; 6 h, replicate number 1): 0.78; Growth Rate ([2]; 6 h, replicate number 2): 0.22
COCCNC1CCC(Nc2cc(-c3csc(NCC4(C#N)CCOCC4)n3)c(Cl)cn2)CC1 (stereo unspecified) | -0.55 | 0.97 | -0.19 | -0.33 | -0.33 | -1 |  | 0.99 | 0.24 | -0.14 | -0.42 | -0.48 | -0.43 | -0.35 | 0.08 | 0.04 | -0.03 | -1 | 0.16 | 0.4 | Growth Rate ([1]; 24 h, replicate number 1): -0.24; Growth Rate ([2]; 6 h, replicate number 2): 0.51; Growth Rate ([2]; 18 h, replicate number 1): -0.21; Growth Rate ([3]; 24 h, replicate number 1): 0.14; Growth Rate ([3]; 24 h, replicate number 2): -0.16
Cc1ccc(-c2c(C(=O)CF)n(CCCO)c3ncnc(N)c23)cc1 |  |  | -0.57 | 0.54 | 0.96 | 0.43 | 0.92 |  | -0.21 | 0.3 | 0.16 | 0.68 | 0.85 | 0.87 |  | 0.96 | 0.98 |  | 0.29 |  | Growth Rate ([2]; 0 h, replicate number 2): -0.79; Growth Rate ([2]; 6 h, replicate number 2): 0.44; Growth Rate ([3]; 6 h, replicate number 2): -1; Growth Rate ([3]; 24 h, replicate number 1): 0.33; Growth Rate ([3]; 24 h, replicate number 2): 0.41

Reference: ChEMBL document CHEMBL5303304, “EUbOPEN Chemogenomics Library - IncuCyte” (2023)
